# From the supplement of paper PMC11208160
# Assay: recombinant barcode read abundance after kanamycin selection (control-corrected) (log10(CPM+1)); higher = more efficient recombination; sequences stand for … in AGTGCAGAGAAAATCGGCCAGTTTTCTCTGCCTGCAGTCCGCATGCCGT…AGATTTATGCAGCGGACTGCCTTTCTCCCAAAGTGATAAACCGGACAGTATCATGGACCGGTTTTCCCGGTAATCCGTATTTGCAAGGTTGGTTTCACT; site = the 11-nt target
# Procedure: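 Pooled E. coli target-specificity screen for the IS621 bridge recombinase. Each library plasmid pairs an 11-nt target (CT core) with a bridge RNA whose target-binding loop (9-nt LTG + 4-nt RTG) is reprogrammed; the rest of the 177-nt WT IS621 bridge RNA scaffold is fixed. The plasmid is co-electroporated with a WT donor plasmid; recombinase is induced with 0.1 mM IPTG and recombinants are selected on kanamycin. Recombinant barcodes are sequenced, converted to CPM, averaged over two biological replicates and corrected by the unselected control CPM. Molecule = full bridge RNA written as DNA: LTG = specificity nt 1-9, RTG = reverse complement of specificity nt 8-11, in the WT scaffold.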
# 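Also: IS621 recombinase and bridge RNA in Escherichia coli cells.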
row,Sequence,recombinant barcode read abundance (log10)
1,ACCCAATCTTGGGTTCTAACCTGTTGCAC (site ACCCAATCTGT),1.94
2,ACCCAATCTTGGGTTCTAACCTGTTGCAC (site TAGGCTACTTG),0.0478
3,ACCCAGCCTTGGGTTCTAACCTGTTGCCT (site ACCCAGCCTAA),0.146
4,ACCCAGCCTTGGGTTCTAACCTGTTGCCT (site ACCCAGCCTAC),1.27
5,ACCCAGCCTTGGGTTCTAACCTGTTGCCT (site ACCCAGCCTAG),1.44
6,ACCCAGCCTTGGGTTCTAACCTGTTGCCT (site ACCCAGCCTAT),0.522
7,ACCCAGTCTTGGGTTCTAACCTGTTGCGG (site ACCCAGTCTCC),2.08
8,ACCCAGTCTTGGGTTCTAACCTGTTGCGG (site GTAAGTGCTAT),0.151
9,ACCCCGTCTTGGGTTCTAACCTGTTGCCT (site ACCCCGTCTAG),1.65
10,ACCCCGTCTTGGGTTCTAACCTGTTGCCT (site ACCCTGTCTCG),0.0376
11,ACCCTGTCTTGGGTTCTAACCTGTTGCCG (site ACCCCGTCTAG),0.0728
12,ACCCTGTCTTGGGTTCTAACCTGTTGCCG (site ACCCTGTCTCG),2.44
13,ACCCTTACTTGGGTTCTAACCTGTTGCCT (site AACCTTACTAG),0.0611
14,ACCCTTACTTGGGTTCTAACCTGTTGCCT (site ACCCTTACTAG),1.07
15,ACCCTTACTTGGGTTCTAACCTGTTGCCT (site AGCCTTACTAG),0.00699
16,ACCCTTACTTGGGTTCTAACCTGTTGCCT (site ATCCTTACTAG),0.142
17,ACCGAGACTTGGGTTCTAACCTGTTGCCT (site ACCGAGACTAG),0.224
18,ACCGAGACTTGGGTTCTAACCTGTTGCCT (site ACCGCGACTAG),0.113
19,ACCGAGACTTGGGTTCTAACCTGTTGCCT (site ACCGGGACTAG),0.0279
20,ACCGAGACTTGGGTTCTAACCTGTTGCCT (site ACCGTGACTAG),0.0449
21,ACCGAGGCTTGGGTTCTAACCTGTTGCCT (site AACGACGCTAG),0.193

row,Sequence,recombinant barcode read abundance (log10)
1,ACCGAGGCTTGGGTTCTAACCTGTTGCCT (site ACCGAGGCTAG),0.824
2,ACCGCGACTTGGGTTCTAACCTGTTGCCT (site ACCGAGACTAG),0.0792
3,ACCGCGACTTGGGTTCTAACCTGTTGCCT (site ACCGCGACTAG),0.0908
4,ACCGCGACTTGGGTTCTAACCTGTTGCCT (site ACCGGGACTAG),0.218
5,ACCGCGACTTGGGTTCTAACCTGTTGCCT (site ACCGTGACTAG),0.121
6,ACCGCTTCTTGGGTTCTAACCTGTTGCCT (site AACGCTTCTAG),0.096
7,ACCGCTTCTTGGGTTCTAACCTGTTGCCT (site ACCGCTTCTAG),0.494
8,ACCGCTTCTTGGGTTCTAACCTGTTGCCT (site AGCGCTTCTAG),0.0685
9,ACCGCTTCTTGGGTTCTAACCTGTTGCCT (site ATCGCTTCTAG),0.329
10,ACCGTAGCTTGGGTTCTAACCTGTTGCCT (site ACCGTACCTAG),0.33
11,ACCGTAGCTTGGGTTCTAACCTGTTGCCT (site ACCGTAGCTAG),1.07
12,ACCGTGACTTGGGTTCTAACCTGTTGCCT (site ACCGAGACTAG),0.0423
13,ACCGTGACTTGGGTTCTAACCTGTTGCCT (site ACCGCGACTAG),0.272
14,ACCGTGACTTGGGTTCTAACCTGTTGCCT (site ACCGGGACTAG),0.0292
15,ACCGTGACTTGGGTTCTAACCTGTTGCCT (site ACCGTGACTAG),1.96
16,ACCTGACCTTGGGTTCTAACCTGTTGCGG (site ACCTGACCTCC),1.6
17,ACCTGACCTTGGGTTCTAACCTGTTGCGG (site CGGACTGCTAG),0.12
18,ACCTGCCCTTGGGTTCTAACCTGTTGCCT (site ACCTGACCTAG),0.154
19,ACCTGCCCTTGGGTTCTAACCTGTTGCCT (site ACCTGCCCTAG),1.38
20,ACCTGCCCTTGGGTTCTAACCTGTTGCCT (site ACCTGGCCTAG),0.0614
